Laboratory results: US10479786B2, “Protein kinase inhibitors” (Princeton Drug Discovery Inc, priority 2016, dated 2019)

How the values were obtained:
LYNa = molecular target: T1, LYNa (Homo sapiens, UniProt P07948); assay: Off-chip Mobility Shift Assay, kinase inhibition; format: biochemical; details: recombinant LYNa; for inhibition at 0.001 µM: at 1 nM; for inhibition at 0.01 µM: at 10 nM, read-out: inhibition
T1 construct: purchased Carna Biosciences, Inc

ABL = molecular target: T2, ABL (Homo sapiens, UniProt P00519); assay: Off-chip Mobility Shift Assay, kinase inhibition; format: biochemical; details: recombinant ABL; for inhibition at 0.001 µM: at 1 nM; for inhibition at 0.01 µM: at 10 nM
T2 construct: purchased Carna Biosciences, Inc
T2 sequence (P00519 whole entry): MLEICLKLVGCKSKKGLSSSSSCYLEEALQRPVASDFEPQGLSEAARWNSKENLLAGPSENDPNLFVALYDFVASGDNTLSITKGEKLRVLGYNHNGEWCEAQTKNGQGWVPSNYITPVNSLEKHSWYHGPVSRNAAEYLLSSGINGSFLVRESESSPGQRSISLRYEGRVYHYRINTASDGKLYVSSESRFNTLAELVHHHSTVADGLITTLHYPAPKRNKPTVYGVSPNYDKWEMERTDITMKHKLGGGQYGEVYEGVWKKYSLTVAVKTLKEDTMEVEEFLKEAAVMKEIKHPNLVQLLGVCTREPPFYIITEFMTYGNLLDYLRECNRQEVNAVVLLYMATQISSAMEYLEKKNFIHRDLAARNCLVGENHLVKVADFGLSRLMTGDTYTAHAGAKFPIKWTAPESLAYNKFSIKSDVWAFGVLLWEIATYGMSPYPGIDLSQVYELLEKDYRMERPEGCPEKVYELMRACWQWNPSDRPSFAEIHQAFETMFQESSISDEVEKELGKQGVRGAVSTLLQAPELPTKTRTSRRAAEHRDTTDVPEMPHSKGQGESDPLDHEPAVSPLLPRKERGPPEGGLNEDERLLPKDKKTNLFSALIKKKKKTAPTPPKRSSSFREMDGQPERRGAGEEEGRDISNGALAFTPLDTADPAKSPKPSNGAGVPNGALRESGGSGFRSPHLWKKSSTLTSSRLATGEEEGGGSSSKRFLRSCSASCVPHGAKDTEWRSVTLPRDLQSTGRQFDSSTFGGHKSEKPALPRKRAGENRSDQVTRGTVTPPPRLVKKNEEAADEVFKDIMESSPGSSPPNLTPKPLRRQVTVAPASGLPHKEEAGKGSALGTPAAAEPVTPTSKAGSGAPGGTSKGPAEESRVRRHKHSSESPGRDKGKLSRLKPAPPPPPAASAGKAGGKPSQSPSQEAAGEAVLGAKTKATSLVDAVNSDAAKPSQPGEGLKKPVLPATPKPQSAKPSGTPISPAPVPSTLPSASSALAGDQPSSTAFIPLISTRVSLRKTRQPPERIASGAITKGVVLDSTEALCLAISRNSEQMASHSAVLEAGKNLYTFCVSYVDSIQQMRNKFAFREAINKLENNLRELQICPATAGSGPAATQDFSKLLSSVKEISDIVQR

[1] = Metabolic stability in human liver microsomes; format: in vitro ADME; details: for metabolic stability compared to dasatinib: human liver microsomes
Experimental: FIG. 1. Metabolic stability of compounds in human liver microsomal incubations. […] Concentrations at specified times were determined by LC-MS/MS.
The incubation reactions at various time points were quenched by adding 2× volumes of acetonitrile containing 100 nM reserpine. The quenched incubation samples were centrifuged at 4000 RPM for 10 min, and the supernatants injected for LC/MS/MS analysis. LC/MS/MS analysis was carried out on a AB Sciex 4000 Q Trap LC/MS/MS system coupled with Shimadzu Prominence UFLCXR 20 series (including a CBM-20A controller, two LC-20ADXR solvent delivery units, SIL-20AC HT autosampler, CTO-20A column oven, and a SPD-20A UV detector).

[2] = test system: battery of selected protein kinases; assay: In vitro screen of a battery of selected protein kinases (summary statement); format: biochemical; details: BTK, BMX, ABL, ABL(E255K), SRC, ACK, ARG, BLK, DDR2, EPHA, FGR, FMS, FRK, FYN, HCK, LCK, LYN, PDGFRα, PDGFRβ, YES, PIK3CA/PIK3R1, among others
Mino = assay: Cell inhibition assay (PrestoBlue, 48 h); format: cell-based; details: Homo sapiens, Mino cells, read-out: IC50, inhibition of growth
YES = molecular target: T3, YES (Homo sapiens, UniProt P07947); assay: Off-chip Mobility Shift Assay, kinase inhibition; format: biochemical; details: recombinant YES; for inhibition at 0.001 µM: at 1 nM; for inhibition at 0.01 µM: at 10 nM
T3 construct: purchased Carna Biosciences, Inc
T3 sequence (P07947 whole entry): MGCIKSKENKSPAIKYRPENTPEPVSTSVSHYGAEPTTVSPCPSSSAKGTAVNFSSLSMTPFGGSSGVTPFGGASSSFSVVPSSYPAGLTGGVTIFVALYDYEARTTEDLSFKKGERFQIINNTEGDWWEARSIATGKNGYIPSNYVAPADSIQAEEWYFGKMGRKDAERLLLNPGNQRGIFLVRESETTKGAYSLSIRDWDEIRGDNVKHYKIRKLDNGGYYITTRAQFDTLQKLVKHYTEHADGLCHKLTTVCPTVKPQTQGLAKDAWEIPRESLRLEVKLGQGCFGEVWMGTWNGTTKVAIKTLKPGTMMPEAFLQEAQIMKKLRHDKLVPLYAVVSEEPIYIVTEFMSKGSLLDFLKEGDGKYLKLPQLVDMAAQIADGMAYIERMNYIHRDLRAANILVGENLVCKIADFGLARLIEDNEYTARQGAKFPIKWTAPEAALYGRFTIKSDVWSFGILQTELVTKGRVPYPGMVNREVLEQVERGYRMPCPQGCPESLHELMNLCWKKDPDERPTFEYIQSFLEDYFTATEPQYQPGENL

BLK = molecular target: T4, BLK (Homo sapiens, UniProt P51451); assay: Off-chip Mobility Shift Assay, kinase inhibition; format: biochemical; details: recombinant BLK; for inhibition at 0.001 µM: at 1 nM; for inhibition at 0.01 µM: at 10 nM
T4 construct: purchased Carna Biosciences, Inc
T4 sequence (P51451 whole entry): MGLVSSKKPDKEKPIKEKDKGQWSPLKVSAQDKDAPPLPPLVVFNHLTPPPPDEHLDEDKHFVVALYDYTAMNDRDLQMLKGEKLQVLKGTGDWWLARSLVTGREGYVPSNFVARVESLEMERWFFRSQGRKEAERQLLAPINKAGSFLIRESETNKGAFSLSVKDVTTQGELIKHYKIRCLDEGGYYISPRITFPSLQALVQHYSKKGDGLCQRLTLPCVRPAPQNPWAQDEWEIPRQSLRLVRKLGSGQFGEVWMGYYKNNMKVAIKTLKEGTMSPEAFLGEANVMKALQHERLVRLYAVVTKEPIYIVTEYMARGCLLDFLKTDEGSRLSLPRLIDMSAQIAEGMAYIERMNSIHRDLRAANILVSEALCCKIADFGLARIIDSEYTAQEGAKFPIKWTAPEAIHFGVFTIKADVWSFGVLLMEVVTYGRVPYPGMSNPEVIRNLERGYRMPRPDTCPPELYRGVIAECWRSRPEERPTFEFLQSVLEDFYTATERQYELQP

PDGFRα = molecular target: T5, PDGFRα (Homo sapiens, UniProt P16234); assay: Off-chip Mobility Shift Assay, kinase inhibition; format: biochemical; details: recombinant PDGFRα; for inhibition at 0.001 µM: at 1 nM; for inhibition at 0.01 µM: at 10 nM, read-out: inhibition
T5 construct: purchased Carna Biosciences, Inc
T5 sequence (P16234 24-1089): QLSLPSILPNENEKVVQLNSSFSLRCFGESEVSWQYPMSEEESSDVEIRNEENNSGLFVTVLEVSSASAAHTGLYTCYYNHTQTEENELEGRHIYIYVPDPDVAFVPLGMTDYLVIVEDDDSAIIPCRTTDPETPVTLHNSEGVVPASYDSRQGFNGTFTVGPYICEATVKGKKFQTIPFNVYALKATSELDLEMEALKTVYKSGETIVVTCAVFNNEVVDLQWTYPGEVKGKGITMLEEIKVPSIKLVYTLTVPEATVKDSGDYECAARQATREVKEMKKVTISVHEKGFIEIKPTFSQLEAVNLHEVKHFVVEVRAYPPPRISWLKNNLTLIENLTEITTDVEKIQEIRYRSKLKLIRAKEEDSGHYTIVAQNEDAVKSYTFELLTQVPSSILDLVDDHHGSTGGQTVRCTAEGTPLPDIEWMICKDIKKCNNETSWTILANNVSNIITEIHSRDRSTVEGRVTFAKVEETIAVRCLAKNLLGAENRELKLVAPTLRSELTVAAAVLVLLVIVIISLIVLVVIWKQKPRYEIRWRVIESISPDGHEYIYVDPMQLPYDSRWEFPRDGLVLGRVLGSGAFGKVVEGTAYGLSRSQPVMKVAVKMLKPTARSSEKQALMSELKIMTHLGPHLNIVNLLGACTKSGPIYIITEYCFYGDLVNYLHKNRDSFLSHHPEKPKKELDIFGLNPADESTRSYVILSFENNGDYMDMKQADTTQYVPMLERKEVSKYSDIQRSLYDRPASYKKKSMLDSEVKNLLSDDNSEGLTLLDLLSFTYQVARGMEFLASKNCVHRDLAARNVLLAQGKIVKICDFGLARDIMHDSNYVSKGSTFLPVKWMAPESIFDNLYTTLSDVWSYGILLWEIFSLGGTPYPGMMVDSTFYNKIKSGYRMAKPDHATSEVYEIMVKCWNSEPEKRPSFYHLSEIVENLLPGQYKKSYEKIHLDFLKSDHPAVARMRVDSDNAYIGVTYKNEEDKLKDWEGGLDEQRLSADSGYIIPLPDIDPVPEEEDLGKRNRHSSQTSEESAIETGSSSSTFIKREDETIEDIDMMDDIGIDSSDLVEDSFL

BMX = molecular target: T6, BMX (Homo sapiens, UniProt P51813); assay: Off-chip Mobility Shift Assay, kinase inhibition; format: biochemical; details: recombinant BMX; for inhibition at 0.001 µM: at 1 nM; for inhibition at 0.01 µM: at 10 nM
T6 construct: purchased Carna Biosciences, Inc
T6 sequence (P51813 1-675): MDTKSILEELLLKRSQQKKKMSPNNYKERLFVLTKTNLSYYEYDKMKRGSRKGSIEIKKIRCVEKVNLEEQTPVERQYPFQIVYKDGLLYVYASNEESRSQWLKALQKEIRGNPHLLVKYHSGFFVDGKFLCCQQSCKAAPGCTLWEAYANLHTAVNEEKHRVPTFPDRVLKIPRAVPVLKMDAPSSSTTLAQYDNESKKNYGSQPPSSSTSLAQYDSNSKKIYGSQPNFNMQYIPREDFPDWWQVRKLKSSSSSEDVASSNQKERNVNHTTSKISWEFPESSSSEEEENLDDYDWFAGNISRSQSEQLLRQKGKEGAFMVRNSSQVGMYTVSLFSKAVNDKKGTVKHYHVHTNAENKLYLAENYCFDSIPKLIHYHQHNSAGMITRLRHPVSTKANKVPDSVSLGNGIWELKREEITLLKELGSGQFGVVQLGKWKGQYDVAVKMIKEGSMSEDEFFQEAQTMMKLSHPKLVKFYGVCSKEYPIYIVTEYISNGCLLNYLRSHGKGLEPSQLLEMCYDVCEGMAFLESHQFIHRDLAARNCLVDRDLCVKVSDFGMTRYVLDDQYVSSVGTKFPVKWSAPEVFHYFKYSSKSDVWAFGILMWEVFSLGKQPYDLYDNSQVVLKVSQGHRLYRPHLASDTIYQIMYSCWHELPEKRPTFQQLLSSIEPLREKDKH

ACK = molecular target: T7, ACK (Homo sapiens, UniProt Q07912); assay: Off-chip Mobility Shift Assay, kinase inhibition; format: biochemical; details: recombinant ACK; for inhibition at 0.01 µM: at 10 nM
T7 construct: purchased Carna Biosciences, Inc
T7 sequence (Q07912 whole entry): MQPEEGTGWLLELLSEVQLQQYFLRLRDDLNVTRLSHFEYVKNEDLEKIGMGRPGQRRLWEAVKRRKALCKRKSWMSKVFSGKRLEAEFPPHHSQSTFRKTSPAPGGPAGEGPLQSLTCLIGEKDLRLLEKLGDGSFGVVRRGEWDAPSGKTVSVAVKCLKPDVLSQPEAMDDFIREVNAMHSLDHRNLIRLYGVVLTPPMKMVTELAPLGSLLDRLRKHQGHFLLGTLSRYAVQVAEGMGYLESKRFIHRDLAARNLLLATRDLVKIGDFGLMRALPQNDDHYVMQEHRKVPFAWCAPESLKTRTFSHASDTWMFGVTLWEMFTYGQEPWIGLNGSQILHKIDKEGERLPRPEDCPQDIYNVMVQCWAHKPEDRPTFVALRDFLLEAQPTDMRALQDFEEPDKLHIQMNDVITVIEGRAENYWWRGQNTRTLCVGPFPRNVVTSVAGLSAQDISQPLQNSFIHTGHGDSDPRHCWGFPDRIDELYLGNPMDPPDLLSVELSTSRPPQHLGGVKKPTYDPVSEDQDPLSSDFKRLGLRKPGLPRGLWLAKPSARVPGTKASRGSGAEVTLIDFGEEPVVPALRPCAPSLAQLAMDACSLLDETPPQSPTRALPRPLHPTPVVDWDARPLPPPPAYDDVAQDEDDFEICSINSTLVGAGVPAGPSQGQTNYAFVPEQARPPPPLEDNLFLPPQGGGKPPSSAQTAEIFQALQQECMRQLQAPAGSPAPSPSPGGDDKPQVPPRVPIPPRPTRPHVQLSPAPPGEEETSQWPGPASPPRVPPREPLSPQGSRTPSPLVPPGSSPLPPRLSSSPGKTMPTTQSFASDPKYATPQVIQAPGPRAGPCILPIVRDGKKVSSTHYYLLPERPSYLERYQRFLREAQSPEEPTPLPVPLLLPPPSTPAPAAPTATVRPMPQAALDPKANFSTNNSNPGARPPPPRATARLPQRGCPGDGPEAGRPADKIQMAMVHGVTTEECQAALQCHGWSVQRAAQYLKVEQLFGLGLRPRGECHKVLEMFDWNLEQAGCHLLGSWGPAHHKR

TEC = molecular target: T8, TEC (Homo sapiens, UniProt P42680); assay: Off-chip Mobility Shift Assay, kinase inhibition; format: biochemical; details: at 1 nM; recombinant TEC
T8 construct: purchased Carna Biosciences, Inc
T8 sequence (P42680 1-631): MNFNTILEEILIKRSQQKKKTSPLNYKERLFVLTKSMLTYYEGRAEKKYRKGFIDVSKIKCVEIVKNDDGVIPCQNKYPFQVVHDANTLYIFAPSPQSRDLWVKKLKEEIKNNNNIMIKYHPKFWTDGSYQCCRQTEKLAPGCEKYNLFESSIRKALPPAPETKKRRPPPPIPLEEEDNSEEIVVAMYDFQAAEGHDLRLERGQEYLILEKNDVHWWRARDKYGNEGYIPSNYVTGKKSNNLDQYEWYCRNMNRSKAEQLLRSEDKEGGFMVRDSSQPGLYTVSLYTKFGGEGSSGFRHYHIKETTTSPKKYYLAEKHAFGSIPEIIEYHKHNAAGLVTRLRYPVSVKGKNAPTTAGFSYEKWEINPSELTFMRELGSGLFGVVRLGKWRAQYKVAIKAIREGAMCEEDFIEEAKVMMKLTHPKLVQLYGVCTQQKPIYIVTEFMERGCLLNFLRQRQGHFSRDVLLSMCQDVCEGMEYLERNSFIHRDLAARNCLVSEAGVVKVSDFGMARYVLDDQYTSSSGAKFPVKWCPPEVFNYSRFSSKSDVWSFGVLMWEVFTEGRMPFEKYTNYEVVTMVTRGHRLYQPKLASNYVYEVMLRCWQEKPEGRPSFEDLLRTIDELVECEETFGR

T1 sequence (P07948 whole entry): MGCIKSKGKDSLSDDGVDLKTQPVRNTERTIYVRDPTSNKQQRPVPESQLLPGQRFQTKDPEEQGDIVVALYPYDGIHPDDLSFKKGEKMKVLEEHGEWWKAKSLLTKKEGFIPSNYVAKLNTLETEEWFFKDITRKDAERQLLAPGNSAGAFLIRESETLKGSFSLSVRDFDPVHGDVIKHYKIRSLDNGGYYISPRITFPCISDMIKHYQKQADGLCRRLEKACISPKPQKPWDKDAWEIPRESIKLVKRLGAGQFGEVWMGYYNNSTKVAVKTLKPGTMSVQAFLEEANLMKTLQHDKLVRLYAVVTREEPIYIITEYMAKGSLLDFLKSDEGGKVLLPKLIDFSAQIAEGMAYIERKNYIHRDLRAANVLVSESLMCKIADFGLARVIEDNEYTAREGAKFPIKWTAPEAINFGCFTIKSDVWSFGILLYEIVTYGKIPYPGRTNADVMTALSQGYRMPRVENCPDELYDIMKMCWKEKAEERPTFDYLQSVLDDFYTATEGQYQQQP

[2H]c1cc(C)c(NC(=O)c2cnc(Nc3cc(N4CCCCC4)nc(C)n3)s2)c(Cl)c1 [Compound I, N-(2-chloro-4-deuterio-6-methyl-phenyl)-2-[[2-methyl-6-(1-piperidyl)pyrimidin-4-yl]amino]thiazole-5-carboxamide]
inhibition at 0.001 µM (LYNa): > 50%
inhibition at 0.01 µM (LYNa): > 50%
inhibition at 0.001 µM (ABL): > 50%
inhibition at 0.01 µM (ABL): > 50%
metabolic stability compared to dasatinib [1]: significantly greater stability
activity to inhibit kinases [2]: potent activity
IC50 (Mino): < 50 nM
inhibition at 0.001 µM (YES): > 50%
inhibition at 0.01 µM (YES): > 50%
inhibition at 0.001 µM (BLK): > 50%
inhibition at 0.01 µM (BLK): > 50%
inhibition at 0.001 µM (PDGFRα): > 50%
inhibition at 0.01 µM (PDGFRα): > 50%
inhibition at 0.001 µM (BMX): > 50%
inhibition at 0.01 µM (BMX): > 50%
inhibition at 0.001 µM (ACK; at 1 nM): > 50%
inhibition at 0.01 µM (ACK): > 50%

[2H]c1cc(C)c(NC(=O)c2cnc(Nc3cc(N4CCC(O)CC4)nc(C)n3)s2)c(Cl)c1 [Compound II, N-(2-chloro-4-deuterio-6-methyl-phenyl)-2-[[6-(4-hydroxy-1-piperidyl)-2-methyl-pyrimidin-4-yl]amino]thiazole-5-carboxamide]
inhibition at 0.001 µM (LYNa): > 50%
inhibition at 0.01 µM (LYNa): > 50%
inhibition at 0.001 µM (ABL): > 50%
inhibition at 0.01 µM (ABL): > 50%
activity to inhibit kinases [2]: potent activity
inhibition at 0.001 µM (TEC): > 50%
IC50 (Mino): < 50 nM
inhibition at 0.001 µM (YES): > 50%
inhibition at 0.01 µM (YES): > 50%
inhibition at 0.001 µM (BLK): > 50%
inhibition at 0.01 µM (BLK): > 50%
inhibition at 0.001 µM (PDGFRα): < 50%
inhibition at 0.01 µM (PDGFRα): > 50%
inhibition at 0.1 µM (PDGFRα; at 100 nM): > 50%
inhibition at 0.001 µM (BMX): > 50%
inhibition at 0.01 µM (BMX): > 50%
inhibition at 0.01 µM (ACK): > 50%

[2H]c1cc(C)c(NC(=O)c2cnc(Nc3cc(N4CC[C@H](O)C4)nc(C)n3)s2)c(Cl)c1 [Compound IV, N-(2-chloro-4-deutero-6-methylphenyl)-2-[[2-methyl-6-((S)-3-hydroxypyrrolidin-1-yl)pyrimidin-4-yl]amino]thiazole-5-carboxamide]
inhibition at 0.001 µM (LYNa): > 50%
inhibition at 0.01 µM (LYNa): > 50%
inhibition at 0.001 µM (ABL): > 50%
inhibition at 0.01 µM (ABL): > 50%
In vitro t1/2 ([1]; 1 μM, human liver microsomes 0.5 mg/mL, NADPH and UDPGA, 37° C.): 1.47 h
metabolic stability compared to dasatinib [1]: significantly greater stability
activity to inhibit kinases [2]: potent activity
inhibition at 0.001 µM (TEC): > 50%
IC50 (Mino): < 50 nM
inhibition at 0.001 µM (YES): > 50%
inhibition at 0.01 µM (YES): > 50%
inhibition at 0.01 µM (BLK): > 50%
inhibition at 0.01 µM (PDGFRα): > 50%
inhibition at 0.001 µM (BMX): > 50%
inhibition at 0.01 µM (BMX): > 50%
inhibition at 0.01 µM (ACK): > 50%
